Assay results: BindingDB's records for PubMed 9686407 (Sri International, 1998)
Where a name gives a salt, the structure may show the parent alone.

Key:
D(1A) dopamine receptor = D(1A) dopamine receptor (Homo sapiens, UniProt P21728)
[1] = biological target: T1, 5-hydroxytryptamine receptor 3A (Mus musculus, UniProt P23979)
T1 sequence (P23979 whole entry): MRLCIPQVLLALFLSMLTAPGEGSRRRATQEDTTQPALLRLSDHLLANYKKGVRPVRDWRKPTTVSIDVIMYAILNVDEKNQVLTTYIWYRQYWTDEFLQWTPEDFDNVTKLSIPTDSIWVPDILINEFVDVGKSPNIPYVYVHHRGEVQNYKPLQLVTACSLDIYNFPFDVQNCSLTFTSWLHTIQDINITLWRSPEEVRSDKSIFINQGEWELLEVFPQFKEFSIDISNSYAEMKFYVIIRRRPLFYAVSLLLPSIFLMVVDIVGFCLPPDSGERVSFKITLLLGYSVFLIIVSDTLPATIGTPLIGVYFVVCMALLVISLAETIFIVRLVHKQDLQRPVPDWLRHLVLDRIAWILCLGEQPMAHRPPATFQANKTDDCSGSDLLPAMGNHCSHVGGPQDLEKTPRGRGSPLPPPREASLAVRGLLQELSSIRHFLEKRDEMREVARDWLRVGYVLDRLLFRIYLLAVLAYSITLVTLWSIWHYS

[2] = biological target: T2, 5-hydroxytryptamine receptor 1A (Homo sapiens, UniProt P08908)
T2 sequence (P08908 whole entry): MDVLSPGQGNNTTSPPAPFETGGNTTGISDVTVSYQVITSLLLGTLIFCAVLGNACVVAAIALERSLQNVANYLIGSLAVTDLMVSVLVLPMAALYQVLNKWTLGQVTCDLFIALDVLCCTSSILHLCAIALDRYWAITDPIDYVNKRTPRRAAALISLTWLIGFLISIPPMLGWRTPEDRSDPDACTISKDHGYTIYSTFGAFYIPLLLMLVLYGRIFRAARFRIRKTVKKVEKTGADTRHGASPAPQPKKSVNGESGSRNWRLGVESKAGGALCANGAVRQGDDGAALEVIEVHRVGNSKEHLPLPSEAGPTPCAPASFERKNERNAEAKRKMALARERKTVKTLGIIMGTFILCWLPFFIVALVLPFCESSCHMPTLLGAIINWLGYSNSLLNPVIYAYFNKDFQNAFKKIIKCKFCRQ

[3] = biological target: 5-hydroxytryptamine receptor 2A (Rattus norvegicus, UniProt P14842)
5-hydroxytryptamine receptor 2A, sequence (P14842 whole entry): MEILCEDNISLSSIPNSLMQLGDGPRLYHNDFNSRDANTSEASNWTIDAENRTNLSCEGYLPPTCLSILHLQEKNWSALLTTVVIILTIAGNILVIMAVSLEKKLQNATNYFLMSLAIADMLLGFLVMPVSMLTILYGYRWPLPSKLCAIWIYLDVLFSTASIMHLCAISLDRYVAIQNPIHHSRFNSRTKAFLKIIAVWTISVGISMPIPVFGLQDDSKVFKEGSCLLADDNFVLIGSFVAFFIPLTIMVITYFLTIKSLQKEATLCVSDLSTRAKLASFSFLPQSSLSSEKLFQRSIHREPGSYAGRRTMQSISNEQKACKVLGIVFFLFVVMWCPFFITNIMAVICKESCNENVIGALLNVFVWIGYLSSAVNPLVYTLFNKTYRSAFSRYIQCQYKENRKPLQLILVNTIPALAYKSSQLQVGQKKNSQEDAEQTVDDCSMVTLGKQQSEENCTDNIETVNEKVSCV

[4] = biological target: T3, 5-hydroxytryptamine receptor 2C (Rattus norvegicus, UniProt P08909)
T3 sequence (P08909 whole entry): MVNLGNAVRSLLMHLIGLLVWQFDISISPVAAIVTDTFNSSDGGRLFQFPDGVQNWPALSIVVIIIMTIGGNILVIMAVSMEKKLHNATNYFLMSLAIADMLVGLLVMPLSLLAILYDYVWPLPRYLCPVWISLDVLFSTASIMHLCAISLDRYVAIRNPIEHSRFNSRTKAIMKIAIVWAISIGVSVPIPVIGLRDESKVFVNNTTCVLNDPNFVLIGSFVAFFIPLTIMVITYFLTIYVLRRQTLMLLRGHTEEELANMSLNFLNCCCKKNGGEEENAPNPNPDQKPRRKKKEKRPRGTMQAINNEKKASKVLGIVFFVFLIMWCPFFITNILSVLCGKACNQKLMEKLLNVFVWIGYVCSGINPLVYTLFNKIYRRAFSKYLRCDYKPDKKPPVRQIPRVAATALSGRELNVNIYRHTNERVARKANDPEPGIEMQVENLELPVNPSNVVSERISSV

D(1A) dopamine receptor, sequence (P21728 whole entry): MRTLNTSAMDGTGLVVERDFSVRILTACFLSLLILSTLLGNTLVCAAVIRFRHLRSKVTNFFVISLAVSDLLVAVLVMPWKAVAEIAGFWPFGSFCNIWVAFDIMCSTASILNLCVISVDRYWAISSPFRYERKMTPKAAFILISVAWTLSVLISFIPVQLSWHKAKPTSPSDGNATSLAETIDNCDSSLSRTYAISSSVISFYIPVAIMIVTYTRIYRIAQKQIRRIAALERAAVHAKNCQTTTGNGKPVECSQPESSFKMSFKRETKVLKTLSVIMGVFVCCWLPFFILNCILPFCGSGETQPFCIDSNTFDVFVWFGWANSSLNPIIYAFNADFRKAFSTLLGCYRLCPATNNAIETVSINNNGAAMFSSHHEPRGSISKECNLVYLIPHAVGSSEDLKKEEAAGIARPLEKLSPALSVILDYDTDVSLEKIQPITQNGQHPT

| Structure (SMILES) | Ki (D(1A) dopamine receptor) | Ki [1] | Ki [2] | Ki [3] | Ki [4] |
| --- | --- | --- | --- | --- | --- |
| CN1C2CCC1CC(OC(=O)c1c[nH]c3ccccc13)C2 (stereo unspecified) | > 10 µM | 0.0005 µM | > 10 µM | 5.61 µM | > 10 µM |
| Cc1ccc(N(CC2=NCCN2)c2cccc(O)c2)cc1 [SMR000059054] | – | 4.29 µM | – | 0.222 µM | 0.459 µM |
| CCN(CC)CCNC(=O)c1cc(Cl)c(N)cc1OC [4-amino-5-chloro-N-[2-(diethylamino)ethyl]-2-methoxy-benzamide;hydrochloride] | > 10 µM | 0.353 µM | > 10 µM | – | 3.86 µM |
| Cc1nccn1CC1CCc2c(c3ccccc3n2C)C1=O (stereo unspecified) [NSC_68647] | > 10 µM | 0.015 µM | > 10 µM | – | – |
| CN1CCc2cc(Cl)c(O)cc2[C@@H](c2ccccc2)C1 [SCH 23390,R(+)] | – | 3.91 µM | 0.661 µM | 0.0122 µM | 0.051 µM |
| CNc1cc(OC)c(C(=O)N[C@H]2CCN(Cc3ccccc3)[C@H]2C)cc1Cl [Nemonapride] | – | 0.526 µM | – | 0.058 µM | 3.12 µM |
| CC(C)C[C@H]1C(=O)N2CCC[C@H]2[C@]2(O)O[C@](NC(=O)[C@@H]3C=C4c5cccc6[nH]c(Br)c(c56)C[C@H]4N(C)C3)(C(C)C)C(=O)N12 [Bromocriptine+ (GTP+)] | 2.07 µM | > 10 µM | 0.025 µM | 0.117 µM | 4.67 µM |
| Cc1[nH]c2ccc(O)cc2c1CCN | > 10 µM | 0.995 µM | – | > 10 µM | 1.37 µM |
| NCCc1ccc(O)c(O)c1 | – | > 10 µM | 8.25 µM | > 10 µM | > 10 µM |
| CN1C2CCC1CC(OC(=O)c1cc(Cl)cc(Cl)c1)C2 (stereo unspecified) [MDL 72222] | > 10 µM | 0.014 µM | > 10 µM | 2.85 µM | > 10 µM |
| O=C(c1ccc(F)cc1)C1CCN(CCn2c(=O)[nH]c3ccccc3c2=O)CC1 [3-(2-{4-[(4-fluorophenyl)carbonyl]piperidin-1-yl}ethyl)-1,2,3,4-tetrahydroquinazoline-2,4-dione] | – | > 10 µM | – | – | 0.069 µM |
| CN1CCN(c2nc3cc(C(F)(F)F)ccc3n3cccc23)CC1 [CAS_109028-10-6] | 1.53 µM | > 10 µM | 0.044 µM | 3.13 µM | 6.6 µM |
| c1ccc2c(c1)OCC(C1=NCCN1)O2 (stereo unspecified) | > 10 µM | > 10 µM | 0.662 µM | > 10 µM | > 10 µM |
| COC(=O)[C@@H](c1ccccc1)[C@@H]1CCCCN1 | > 10 µM | > 10 µM | > 10 µM | > 10 µM | > 10 µM |
| COc1ccccc1N1CCN(CCCCN2C(=O)c3ccccc3C2=O)CC1 [2-{4-[4-(2-Methoxy-phenyl)-piperazin-1-yl]-butyl}-isoindole-1,3-dione] | 4.51 µM | > 10 µM | – | 0.549 µM | 4.12 µM |
| CN(C)CCCN1c2ccccc2CCc2ccccc21 | > 10 µM | 3.65 µM | > 10 µM | – | 0.106 µM |
| N[C@@H]1C[C@H]1c1ccccc1 [Tranylcypromine,(+)] | – | > 10 µM | 5.96 µM | > 10 µM | > 10 µM |
| CN(C)CCCN1c2ccccc2Sc2ccc(Cl)cc21 [[3-(2-Chloro-phenothiazin-10-yl)-propyl]-dimethyl-amine(Chlorpromazine)] | – | 0.82 µM | – | – | – |
| CCCN(CCC)C1CCc2cccc(O)c2C1 (stereo unspecified) | > 10 µM | > 10 µM | – | > 10 µM | – |
| O=C(CCCN1CCC2(CC1)C(=O)NCN2c1ccccc1)c1ccc(F)cc1 [8-[4-(4-fluorophenyl)-4-oxidanylidene-butyl]-1-phenyl-1,3,8-triazaspiro[4.5]decan-4-one] | – | > 10 µM | – | – | – |
| CCCN1CCC[C@@H]2Cc3n[nH]cc3C[C@H]21 [NSC_54562] | – | > 10 µM | 1.71 µM | > 10 µM | > 10 µM |

| Structure (SMILES) | Ki (D(1A) dopamine receptor) | Ki [1] | Ki [2] | Ki [3] | Ki [4] |
| --- | --- | --- | --- | --- | --- |
| C[C@H](N)Cc1ccccc1 [beta-aminopropylbenzene] | – | > 10 µM | 6.61 µM | – | – |
| CN(C)C/C=C(/c1ccc(Br)cc1)c1cccnc1 [cis-[3-(4-Bromo-phenyl)-3-pyridin-3-yl-allyl]-dimethyl-amine;HCl] | – | > 10 µM | – | – | 0.482 µM |
| c1ccc2nc(N3CCNCC3)ccc2c1 [2-Piperazin-1-yl-quinoline (Quipazine)] | > 10 µM | 0.0032 µM | – | 0.092 µM | 0.653 µM |
| C=CCN1CCc2c(cc(O)c(O)c2Cl)C(c2ccccc2)C1 (racemic) [SKF 82958] | – | > 10 µM | 1.78 µM | 1.29 µM | 4.63 µM |
| NC(Cc1ccc(O)c(O)c1)C(=O)O (stereo unspecified) [2-amino-3-(3,4-dihydroxyphenyl)propanoic acid] | – | > 10 µM | – | > 10 µM | > 10 µM |
| CCN1CCCC1CNC(=O)c1cc(S(N)(=O)=O)ccc1OC (stereo unspecified) [N-[(1-ethylpyrrolidin-2-yl)methyl]-2-methoxy-5-sulfamoylbenzamide] | > 10 µM | > 10 µM | > 10 µM | – | – |
| CNCCCN1c2ccccc2CCc2ccccc21 [Desmethylimipramine] | – | 4.4 µM | – | – | 0.748 µM |
| OCCN1CCN(CC/C=C2/c3ccccc3Sc3ccc(C(F)(F)F)cc32)CC1 [(cis) 2-{4-[3-(2-Trifluoromethyl-thioxanthen-9-ylidene)-propyl]-piperazin-1-yl}-ethanol(Flupentixol)] | – | > 10 µM | 8.03 µM | – | 0.295 µM |
| OCCN1CCN(CC/C=C2/c3ccccc3Sc3ccc(C(F)(F)F)cc32)CC1 [Fluphenthixol] | – | – | – | 0.013 µM | – |
| COC(=O)[C@@H]1[C@H]2C[C@H]3c4[nH]c5ccccc5c4CCN3C[C@@H]2CC[C@@H]1O [yohimbic acid methyl ester] | – | – | – | – | > 10 µM |
| OCCN1CCN(CCCN2c3ccccc3Sc3ccc(C(F)(F)F)cc32)CC1 [2-[4-[3-[2-(trifluoromethyl)phenothiazin-10-yl]propyl]piperazin-1-yl]ethanol;hydrochloride] | – | > 10 µM | – | – | – |
| Oc1cc2c(cc1O)[C@@H](c1ccccc1)CNCC2 | – | > 10 µM | 3.1 µM | 6.16 µM | > 10 µM |
| CN[C@@H](C)Cc1ccc2c(c1)OCO2 [MDMA, R(-)] | > 10 µM | > 10 µM | > 10 µM | 3.91 µM | – |
| CC(N)Cc1ccc2c(c1)OCO2 (stereo unspecified) | > 10 µM | > 10 µM | > 10 µM | – | – |
| CN1CCc2cccc3c2[C@H]1Cc1ccc(O)c(O)c1-3 [APOKYN] | – | > 10 µM | – | 4.38 µM | 1.1 µM |
| Oc1cc2c(c(Cl)c1O)CCNC[C@@H]2c1ccccc1 [(R)-6-Chloro-7,8-dihydroxy-1-phenyl-2,3,4,5-tetrahydro-1H-benzo[d]azepinium] | – | – | 5.52 µM | 3.08 µM | 1.51 µM |
| O=c1[nH]c2ccccc2n1C1CCN(CCCC(c2ccc(F)cc2)c2ccc(F)cc2)CC1 [1-(1-(4,4-bis(4-fluorophenyl)butyl)piperidin-4-yl)-1H-benzo[d]imidazol-2(3H)-one] | – | 3.29 µM | – | 0.049 µM | 5.79 µM |
| CC(C)(C)[C@]1(O)CCN2C[C@H]3c4ccccc4CCc4cccc(c43)[C@@H]2C1 | – | > 10 µM | 0.528 µM | 0.0052 µM | 1.06 µM |
| CN1Cc2c(N)cccc2[C@H](c2ccccc2)C1 [(+/-)-2-Methyl-4-phenyl-1,2,3,4-tetrahydro-isoquinolin-8-ylamine] | > 10 µM | > 10 µM | 1.18 µM | – | – |
| C=CCN1CCc2cc(O)c(O)cc2C(c2ccccc2)C1 (stereo unspecified) | – | – | 2.11 µM | 2.7 µM | 3.04 µM |
| Cc1nc2sccn2c(=O)c1CCN1CCC(=C(c2ccc(F)cc2)c2ccc(F)cc2)CC1 | 0.933 µM | > 10 µM | – | – | – |
